The source made the active and inactive calls. No cut-off for these calls is given here.
How the values were obtained:
[1] = system: BJ; test: Cytotoxicity against human BJ cells assessed as reduction in cell viability after 72 hrs by resazurin dye based assay
[2] = system: HeLa; test: Antiproliferative activity against human HeLa cells assessed as reduction in cell viability after 72 hrs by resazurin dye based assay; assay type: functional
[3] = biological target: T1, Sodium/potassium-transporting ATPase (Sus scrofa) (UniProt P05027+P05024+D2WKD8+D2WKD7+F1ST41); test: Inhibition of porcine kidney Na+/K+-ATPase assessed as residual activity at 50 uM preincubated for 2 mins followed by ATP addition and measured after 6 mins by bagin-sky assay relative to untreated control; assay type: protein-complex assay
[4] = system: CCRF-CEM; test: Antiproliferative activity against human CEM cells assessed as reduction in cell viability after 72 hrs by resazurin dye based assay; assay type: functional
[5] = system: CCRF-CEM; test: Cell cycle arrest in human CEM cells assessed as increase in cell population at G0/G1 phase at 15 uM after 24 hrs by RNase A/propidium iodide staining-based flow cytometric analysis; assay type: functional
[6] = system: A2780; test: Antiproliferative activity against human A2780 cells assessed as reduction in cell viability after 72 hrs by resazurin dye based assay; assay type: functional; details: A2780, 72 h
[7] = system: MCF7; test: Antiproliferative activity against human MCF7 cells assessed as reduction in cell viability after 72 hrs by resazurin dye based assay; assay type: functional; details: MCF7, 72 h
[8] = system: CCRF-CEM; test: Cell cycle arrest in human CEM cells assessed as reduction in cell population at S phase at 15 uM after 24 hrs by RNase A/propidium iodide staining-based flow cytometric analysis; assay type: functional
[9] = system: CCRF-CEM; test: Induction of apoptosis in human CEM cells assessed as decrease in Mcl-1 expression at 15 uM after 24 hrs by Western blot analysis; assay type: functional, cell-based
[10] = system: CCRF-CEM; test: Induction of apoptosis in human CEM cells assessed as PARP-1 cleavage at 15 uM after 24 hrs by Western blot analysis; assay type: functional, cell-based
[11] = system: CCRF-CEM; test: Cell cycle arrest in human CEM cells assessed as accumulation of cells at sub-G1 phase at 15 uM after 24 hrs by RNase A/propidium iodide staining-based flow cytometric analysis; assay type: functional
[12] = system: CCRF-CEM; test: Induction of apoptosis in human CEM cells assessed as caspase-7 fragmentation at 15 uM after 24 hrs by Western blot analysis; assay type: functional, cell-based
[13] = system: CCRF-CEM; test: Induction of apoptosis in human CEM cells assessed as increase in relative activity of caspase-3/7 at 15 uM using AC-DEVD-AMC as substrate after 24 hrs by fluorescence based assay; assay type: functional, cell-based
[14] = system: Hep 3B2; test: Antiproliferative activity against human Hep3B cells assessed as reduction in cell viability after 72 hrs by resazurin dye based assay; assay type: functional
[15] = system: CCRF-CEM; test: Effect on cell cycle analysis in human CEM cells at 15 uM after 24 hrs by RNase A/propidium iodide staining-based flow cytometric analysis; assay type: functional
[16] = biological target: T1, Sodium/potassium-transporting ATPase (Sus scrofa); test: Inhibition of porcine kidney Na+/K+-ATPase at 50 uM preincubated for 2 mins followed by ATP addition and measured after 6 mins by bagin-sky assay relative to Olean-drigenin; assay type: protein-complex assay
[17] = system: CCRF-CEM; test: Induction of apoptosis in human CEM cells assessed as increase in relative activity of caspase-3/7 at 15 uM using AC-DEVD-AMC as substrate after 24 hrs by fluorescence based assay relative to untreated control; assay type: functional
[18] = system: CCRF-CEM; test: Cell cycle arrest in human CEM cells assessed as decrease in cell population at G0/G1 phase at 15 uM after 24 hrs by RNase A/propidium iodide staining-based flow cytometric analysis; assay type: functional
[19] = system: CCRF-CEM; test: Cell cycle arrest in human CEM cells assessed as increase in accumulation of cells in S phase after 24 hrs by RNase A/propidium iodide staining-based flow cytometric analysis; assay type: functional
[20] = system: CCRF-CEM; test: Cell cycle arrest in human CEM cells assessed as increase in accumulation of cells in G2/M phase after 24 hrs by RNase A/propidium iodide staining-based flow cytometric analysis; assay type: functional

CO[C@H]1CC[C@@]2(C)[C@@H](CC[C@@H]3[C@@H]2CC[C@]2(C)[C@@H](C4=CC(=O)OC4)[C@@H](O)[C@H]4O[C@]342)C1 was tested, and the IC50 [1] was > 50 µM, the IC50 [2] was > 50 µM and the Activity [3] was 75%. For the same compound, the IC50 [4] was > 50 µM, the Activity [5] was “Active” and the IC50 [6] was > 50 µM. The IC50 [7] was > 50 µM and the Activity [8] was “Active”.

CO[C@H]1CC[C@@]2(C)[C@@H](CC[C@@H]3[C@@H]2CC[C@]2(C)[C@@H](C4=CC(=O)OC4)[C@@H](OC(C)=O)[C@H]4O[C@]342)C1 was tested, and the Activity [9] was “Active”, the Activity [10] was “Active” and the IC50 [1] was 4.5 µM. The Activity [11] was “Active”, the IC50 [2] was 11.3 µM and the Activity [3] was 25%. The Activity [12] was “Active”, the IC50 [4] was 2.5 µM and the IC50 [6] was 1.7 µM. The IC50 [7] was 7.6 µM and the Activity [13] was “Active”.

With CO[C@H]1CC[C@@]2(C)[C@@H](CC[C@@H]3[C@@H]2CC[C@]2(C)[C@@H](c4ccoc4)[C@@H](O)[C@H]4O[C@]342)C1 the IC50 [1] was > 50 µM, the IC50 [2] was 11.9 µM and the Activity [3] was 101%. For the same compound, the IC50 [14] was 27.2 µM, the IC50 [4] was 36.4 µM and the IC50 [6] was 18.4 µM. For the same compound, the IC50 [7] was 50 µM.

With CO[C@H]1CC[C@@]2(C)[C@@H](CC[C@@H]3[C@@H]2CC[C@]2(C)[C@@H](c4ccoc4)[C@@H](OC(C)=O)C[C@]32O)C1 the IC50 [1] was > 50 µM, the Activity [15] was “inactive” and the IC50 [2] was > 50 µM. The Activity [3] was 75%, the IC50 [14] was > 50 µM and the IC50 [4] was > 50 µM. The IC50 [6] was > 50 µM and the IC50 [7] was > 50 µM.

Compound CO[C@H]1C[C@H](O[C@H]2CC[C@@]3(C)[C@H](CC[C@@H]4[C@@H]3CC[C@]3(C)[C@@H](C5=CC(=O)OC5)[C@@H](OC(C)=O)C[C@]43O)C2)O[C@@H](C)[C@@H]1O [OLEANDRIN] has an IC50 [1] of 0.026 µM, an IC50 [2] of 0.062 µM and an Activity [3] of 49%. It also gave an IC50 [4] of 0.019 µM, an inhibition [16] of 25% and an IC50 [7] of 0.033 µM.

In the case of CO[C@H]1CC[C@@]2(C)[C@@H](CC[C@@H]3[C@@H]2CC[C@]2(C)[C@@H](C4=CC(=O)OC4)[C@@H](OC(C)=O)[C@@H]4O[C@@]342)C1, the “fold change (FC)” value [17] is reported as “<=19”, the Activity [9] is reported as “Active” and the Activity [10] is reported as “Active”. For the same compound, the IC50 [1] was 5.7 µM, the Activity [11] was “Active” and the IC50 [2] was 17.5 µM. For the same compound, the Activity [3] was 104%, the IC50 [14] was > 50 µM and the Activity [12] was “Active”. The IC50 [4] was 1.3 µM, the IC50 [6] was 4.9 µM and the IC50 [7] was 4.4 µM.

CC(=O)O[C@H]1C[C@]2(O)[C@@H]3CC[C@@H]4C[C@@H](O)CC[C@]4(C)[C@H]3CC[C@]2(C)[C@H]1C1=CC(=O)OC1 gave an IC50 [1] of 0.1 µM, an IC50 [2] of 0.2 µM and an Activity [3] of 75%. It also gave an IC50 [4] of 0.2 µM and an IC50 [7] of 0.8 µM.

For CO[C@H]1CC[C@@]2(C)[C@@H](CC[C@@H]3[C@@H]2CC[C@]2(C)[C@@H](C4=CC(=O)OC4)[C@@H](OC(C)=O)C[C@]32O)C1, the Activity [18] was “Active”, the Activity [19] was “Dose-dependent effect” and the Activity [10] was “Active”. For the same compound, the IC50 [1] was 7.9 µM, the Activity [11] was “Active” and the IC50 [2] was 14.8 µM. For the same compound, the Activity [3] was 24%, the IC50 [14] was 7.7 µM and the Activity [12] was “Active”. It also gave an IC50 [4] of 5.8 µM, an IC50 [6] of 5.9 µM and an IC50 [7] of 21.1 µM. For the same compound, the Activity [13] was “Active” and the Activity [20] was “Dose-dependent effect”.

In the case of CO[C@H]1CC[C@@]2(C)[C@@H](CC[C@@H]3[C@@H]2CC[C@]2(C)[C@@H](C4=CC(=O)OC4)[C@@H](O)C[C@]32O)C1, the Activity [10] is reported as “Active”, the IC50 [1] is reported as > 50 µM and the Activity [11] is reported as “Active”. For the same compound, the IC50 [2] was > 50 µM, the Activity [3] was 25% and the Activity [12] was “Active”. The IC50 [4] was 14.1 µM, the IC50 [6] was > 50 µM and the IC50 [7] was > 50 µM. The Activity [13] was “inactive”.
